In general, IC50 refers to the concentration that gives 50% inhibition. Higher therefore signals weaker potency in that assay.

Experiment [1] can be described thus: Inhibition of IL-6 (unknown origin) by ELISA assay. (In an ELISA, binding on a coated surface is turned into a signal by an enzyme label.)
The nature of experiment [2]: Inhibition of TNF-alpha (unknown origin) by ELISA assay.

Take `CC(C)=CCN1Cc2cc(C)cc3[nH]c(=S)n(c23)CC1C` (centres undefined): the IC50 amounted to 2000 nM in experiment [1] and 629 nM in experiment [2].
For `CCOC(=O)C1=C(C)N=c2s/c(=C\c3ccc(N4CCOCC4)cc3)c(=O)n2C1c1ccccc1` (centres undefined), the IC50 in experiment [1] came to 860 nM; in experiment [2], 3310 nM.
On to `CCCC[C@@H]1OC(=O)C2=CCCC[C@H]21`, for which the IC50 in experiment [1] turned out to be 1630 nM; in experiment [2], 6380 nM.
Taken in the same sequence, the figures for `CCOP(=O)(OCC)SCCSCC` were 600 nM and 1160 nM.
For `CC(C)=CCN1Cc2cc(Cl)c(Cl)c3nc(S)n(c23)C[C@@H]1C`, the IC50 was found to be 1280 nM in experiment [1] and 1420 nM in experiment [2].
On the same counts, the results for `COP(=O)(OC)Oc1ccc([N+](=O)[O-])cc1` are 560 nM and 890 nM.
Turning to `CCSCCSP(=O)(OC)OC`, the IC50 turned out to be 13800 nM in experiment [1] and 20600 nM in experiment [2].
